Measurements published in patent US20260241008A1, “COMPOSITION CONTAINING SELF-ASSEMBLED STRUCTURE AND FREEZE-DRIED PRODUCT THEREOF” (Resonac Corporation, priority 2023, published 2026).

Experiment: Krafft point of TPNa aqueous solution
Assay type: physicochemical

Krafft point (Kp): 16.2 °C
Structure (SMILES): Cc1c(C)c2c(c(C)c1OP(=O)([O-])[O-])CCC(C)(CCCC(C)CCCC(C)CCCC(C)C)O2.[Na+].[Na+] (racemic) [TPNa, sodium salt of the dl-α-tocopheryl phosphate]
